From publication PMC9333455, “Drug repurposing based on a quantum-inspired method versus classical fingerprinting uncovers potential antivirals against SARS-CoV-2” (PLoS Computational Biology, 2022)

System: SARS-CoV-2 variants Alpha (B.1.1.7), Beta (B.1.351), Delta (B.617.2)
Assay type: cell-based
Conditions: Vero E6 and Caco-2 cells, 48 h

COc1nc(N)nc2c1ncn2[C@@H]1O[C@H](COP(=O)(N[C@@H](C)C(=O)OCC(C)(C)C)Oc2cccc3ccccc23)[C@@H](O)[C@@]1(C)O (stereo partly shown) [BMS-986094]
replication of panel of SARS-CoV-2 variant isolates (in words): suppressed the replication
